Measurements from patent US5449814A, “Lignan analogues, methods of preparation thereof and anti-hyperlipemic agents” (Shionogi & Co., Ltd., priority 1991, dated 1995).
Where two headings read alike, the source gives them in different places.

What was measured:
[1] = tested on: cholesterol in serum; experiment: Hypocholesterolemic effect in cholesterol-fed mice; format: in vivo, Male ICR mice; details: Mus musculus, po, 168 h, diet 1% cholesterol and 0.5% sodium cholate with 0.12% test compound, 7 days
Protocol: Hypocholesterolemic effect
Male ICR mice weighing 30 to 40 g were allowed to access to a diet containing 1% cholesterol and 0.5% sodium cholate supplemented with 0.12% of a test compound (no test compound in control group) ad libitum for 7 days. Then, the blood was taken and total cholesterol in serum was determined by the method of Allain (Clin. Chem., Vol. 20, 470 (1974)).
Total amount of VLDL cholesterol and LDL cholesterol was obtained by subtracting HLD cholesterol from total cholesterol. HLD cholesterol was quantified by the method of Ash and Hentschel et al. (Clin. Chem., Vol. 24, 2180 (1978)).
Hypocholesterolemic effect of a test compound was evaluated based on % reduction in cholesterol calculated using the equation shown below.

[2] = tested on: LDL; experiment: Inhibitory effect on oxidative modification of LDL (copper-induced, TBA reactive substances); format: biochemical, New Zealand albino rabbits; details: rabbit LDL 0.2 mg protein/ml, 0.5 μM Cu^2+, 37° C., 24 hours; read-out: Inhibition of LDL oxidation IC50
Protocol: Inhibitory effect on oxidative modification of LDL
According to the method by Kita et al. (Proc. Natl. Acad. Sci., U.S.A, Vol. 84, 5928 (1987)), the experiment was proceeded as follows.
LDL was isolated from the blood of New Zealand albino rabbits fed with a diet containing 0.5% cholesterol for 3 weeks, and dissolved in phosphate-buffered physiological saline (final LDL concentration: 0.2 mg protein/ml). To this solution, each test compound in ethanol was added and then copper sulfate (final Cu^2+ concentration: 0.5 μM) was added thereto. The mixture was incubated at 37° C. for 24 hours.
After incubation, the content of lipid peroxides in each solution was determined as thiobarbituric acid reactive substances (TBA reactive substances). Concentration for 50% inhibition (IC50) was obtained from a linear regression curve of concentration of a compound versus % inhibition of oxidative modification of LDL. To quantify TBA reactive substances, proteins were removed from the solution after incubation, and the supernatant was examined for the content of TBA reactive substances by TBA method.

[3] = serum, read-out: Total Chol. reduction (%)
[4] = total minus HDL cholesterol, read-out: (VLDL + LDL) Chol. reduction (%)

Structure (SMILES) | IC50 [2] [nM] | inhibition in vivo at 0.12 % in diet [1, 3] [%] | inhibition in vivo at 0.12 % in diet [1, 4] [%]
COC(=O)c1c(C(=O)C(F)(F)C(F)(F)F)c(O)c2cc(OC)c(OC)c(OC)c2c1-c1ccc(OC)c(OC)c1 [Example 31, 1-(3,4-Dimethoxyphenyl)-4-hydroxy-2-methoxycarbonyl-3-(pentafluoro-1-oxopropyl)-6,7,8-trimethoxynaphthalene] | 850 | 15 | 41
CCC(=O)c1c(C(=O)OC)c(-c2ccc(OC)c(OC)c2)c2c(OC)c(OC)c(OC)c(COC)c2c1O [Example 74, 1-(3,4-dimethoxyphenyl)-3-(1-oxopropyl)-4-hydroxy-2-methoxycarbonyl-5-methoxymethyl-6,7,8-trimethoxynaphthalene] | 6560 | 6 | 41
CCC(=O)c1c(C(=O)OC)c(-c2ccc(OC)c(OC)c2)c2c(OC)c(OC)c(OC)c(C)c2c1O [Example 72, 1-(3,4-dimethoxyphenyl)-3-(1-oxopropyl)-4-hydroxy-2-methoxycarbonyl-5-methyl-6,7,8-trimethoxynaphthalene] | 590 | 20 | 64
CCC(CC)CC(=O)c1c(C(=O)OC)c(-c2ccc(OC)c(OC)c2)c2c(OC)c(OC)c(OC)c(CO)c2c1O [Example 71, 1-(3,4-dimethoxyphenyl)-3-(3-ethyl-1-oxopentyl)-4-hydroxy-5-hydroxymethyl-2-methoxycarbonyl-6,7,8-trimethoxynaphthalene] | 5960 | 16 | 44
COC(=O)c1c(C(=O)c2ccc(C)cc2)c(O)c2cc(OC)c(OC)c(OC)c2c1-c1ccc(OC)c(OC)c1 [Example 19, 1-(3,4-Dimethoxyphenyl)-4-hydroxy-2-methoxycarbonyl-3-(4-methylbenzoyl)-6,7,8-trimethoxynaphthalene] | 1050 | 11 | 58
CCC(CC)CC(=O)c1c(C(=O)OC)c(-c2ccc(OC)cc2OC)c2c(OC)c(OC)c(OC)cc2c1O [Example 42, 1-(2,4-Dimethoxyphenyl)-3-(3-ethyl-1-oxopentyl)-4-hydroxy-2-methoxycarbonyl-6,7,8-trimethoxynaphthalene] | 1680 | 5 | 26
COC(=O)c1c(C(=O)c2ccccc2)c(O)c2c(C)c(OC)c(OC)c(OC)c2c1-c1ccc(OC)c(OC)c1 [Example 78, 3-benzoyl-1-(3,4-dimethoxyphenyl)-4-hydroxy-2-methoxycarbonyl-5-methyl-6,7,8-trimethoxynaphthalene] | 620 | 14 | 42
COc1ccc(-c2c(C(F)(F)F)c(C(=O)c3ccc(C(F)(F)F)cc3)c(O)c3cc(OC)c(OC)c(OC)c23)cc1OC [Example 63, 1-(3,4-dimethoxyphenyl)-4-hydroxy-2-(trifluoromethyl)-3-[4-(trifluoromethyl)benzoyl]-6,7,8-trimethoxynaphthalene] | 2320 | 20 | 53
COC(=O)c1c(C(C)=O)c(O)c2cc(OC)c(OC)c(OC)c2c1-c1ccc(OC)c(OC)c1 [Example 2, 3-Acetyl-1-(3,4-dimethoxyphenyl)-4-hydroxy-2-methoxycarbonyl-6,7,8-trimethoxynaphthalene] | 1240 | 22 | 59
COC(=O)c1c(C(=O)c2ccc(C(F)(F)F)cc2)c(O)c2cc(OC)c(OC)c(OC)c2c1-c1ccc(OC)c(OC)c1 [Example 28, 1-(3,4-Dimethoxyphenyl)-4-hydroxy-2-methoxycarbonyl-3-[4-(trifluoromethyl)benzoyl]-6,7,8-trimethoxynaphthalene] | 1520 | 22 | 61
COC(=O)c1c(C(=O)Cc2ccccc2)c(O)c2cc(OC)c(OC)c(OC)c2c1-c1ccc(OC)c(OC)c1 [Example 8, 1-(3,4-Dimethoxyphenyl)-4-hydroxy-2-methoxycarbonyl-3-(2-phenyl-1-oxoethyl)-6,7,8-trimethoxynaphthalene] | 4670 | 17 | 50
COC(=O)c1c(C(=O)CC2CCCCC2)c(O)c2cc(OC)c(OC)c(OC)c2c1-c1ccc(OC)c(OC)c1 [Example 7, 3-(2-Cyclohexyl-1-oxoethyl)-1-(3,4-dimethoxyphenyl)-4-hydroxy-2-methoxycarbonyl-6,7,8-trimethoxynaphthalene] | 2580 | 23 | 59
COC(=O)c1c(C(=O)c2cccc(C)c2)c(O)c2cc(OC)c(OC)c(OC)c2c1-c1ccc(OC)c(OC)c1 [Example 18, 1-(3,4-Dimethoxyphenyl)-4-hydroxy-2-methoxycarbonyl-3-(3-methylbenzoyl)-6,7,8-trimethoxynaphthalene] | 1000 | 13 | 66

The remaining molecules from weak to strong by IC50 [2], led by results:

IC50 [2] [nM] | Structure (SMILES) | inhibition in vivo at 0.12 % in diet [1, 3] [%] | inhibition in vivo at 0.12 % in diet [1, 4] [%]
17000 | CCC(=O)c1c(C(=O)OC)c(-c2ccc(OC)cc2OC)c2c(OC)c(OC)c(OC)cc2c1O [Example 41, 1-(2,4-Dimethoxyphenyl)-4-hydroxy-2-methoxycarbonyl-3-(1-oxopropyl)-6,7,8-trimethoxynaphthalene] | 11 | 41
7100 | CCC(CC)C(=O)c1c(C)c(-c2ccc(OC)c(OC)c2)c2c(OC)c(OC)c(OC)cc2c1O [Example 64, 1-(3,4-dimethoxyphenyl)-3-(2-ethyl-1-oxobutyl)-4-hydroxy-2-methyl-6,7,8-trimethoxynaphthalene] | 2 | 39
4950 | CCC(CC)CC(=O)c1c(C(=O)OC)c(-c2ccc(OC)c(F)c2)c2c(OC)c(OC)c(OC)cc2c1O [Example 61, 3-(3-Ethyl-1-oxopentyl)-1-(3-fluoro-4-methoxyphenyl)-4-hydroxy-2-methoxycarbonyl-6,7,8-trimethoxynaphthalene] | 11 | 43
2550 | COC(=O)c1c(C(=O)C(C)C)c(O)c2c(OC)c(OC)c(OC)c(OC)c2c1-c1ccc(OC)c(OC)c1 [Example 77, 1-(3,4-dimethoxyphenyl)-3-(2-methyl-1-oxopropyl)-4-hydroxy-2-methoxycarbonyl-5,6,7,8-tetramethoxynaphthalene] | 18 | 53
2500 | COC(=O)c1c(C(=O)c2ccccc2OC)c(O)c2cc(OC)c(OC)c(OC)c2c1-c1ccc(OC)c(OC)c1 [Example 20, 1-(3,4-Dimethoxyphenyl)-4-hydroxy-3-(2-methoxybenzoyl)-2-methoxycarbonyl-6,7,8-trimethoxynaphthalene] | 14 | 63
2210 | CCC(CC)CC(=O)c1c(C(=O)OC)c(-c2ccc(OC)c(OC)c2)c2cc3c(cc2c1O)OCCO3 [Example 36, 1-(3,4-Dimethoxyphenyl)-6,7-ethylenedioxy-3-(3-ethyl-1-oxopentyl)-4-hydroxy-2-(methoxycarbonyl)naphthalene] | 21 | 49
1850 | CCC(=O)c1c(C(=O)OC)c(-c2ccc(OC)c(OC)c2)c2c(OC)c(OC)c(OC)cc2c1O [Example 16, 1-(3,4-Dimethoxyphenyl)-4-hydroxy-2-methoxycarbonyl-3-(1-oxopropyl)-6,7,8-trimethoxynaphthalene] | 26 | 56
1420 | COC(=O)c1c(C(=O)c2ccc(Cl)cc2)c(O)c2cc(OC)c(OC)c(OC)c2c1-c1ccc(OC)c(OC)c1 [Example 23, 3-(4-Chlorobenzoyl)-1-(3,4-dimethoxyphenyl)-4-hydroxy-2-methoxycarbonyl-6,7,8-trimethoxynaphthalene] | 28 | 74
820 | COC(=O)c1c(C(=O)c2ccc(OC)cc2)c(O)c2cc(OC)c(OC)c(OC)c2c1-c1ccc(OC)c(OC)c1 [Example 22, 1-(3,4-Dimethoxyphenyl)-4-hydroxy-3-(4-methoxybenzoyl)-2-methoxycarbonyl-6,7,8-trimethoxynaphthalene] | 12 | 60
180 | COC(=O)c1c(C(=O)c2ccccc2)c(O)c2cc(OC)c(OC)c(OC)c2c1-c1ccc(OC)c(OC)c1 [Example 6, 3-Benzoyl-1-(3,4-dimethoxyphenyl)-4-hydroxy-2-methoxycarbonyl-6,7,8-trimethoxynaphthalene] | 16 | 55
